These results are taken from PMC8540948, “Design and Synthesis of Newly Synthesized Acrylamide Derivatives as Potential Chemotherapeutic Agents against MCF-7 Breast Cancer Cell Line Lodged on PEGylated Bilosomal Nano-Vesicles for Improving Cytotoxic Activity” (Pharmaceuticals, 2021).

Data set [1] has as its system breast cancer MCF-7 cell line. Put plainly: MTT cytotoxicity against breast cancer MCF-7 cell line. It is filed as cell-based. To be noted: MTT assay, 24 h drug treatment. The method, then:
Compounds 2–5d were evaluated for their cytotoxic activities against breast cancer MCF-7 cell line by using an MTT colorimetric assay. Cisplatin was used as reference drug in this study. […] Additionally, the therapeutic safety of N-(3-hydroxy-4-methoxy) aryl amide derivative 4e was determined by screening its cytotoxic activity against normal breast cell line (MCF-10A) using an MTT colorimetric assay. […]
(§1) Cytotoxic activity of the newly prepared acrylamide derivatives 2–5d were carried out against breast MCF-7 cancer cell line using the MTT assay method. Compound 4e was screened for its effects on normal breast cell line MCF-10A. Cells at density of 1 × 10^4 were seeded in a 96-well plate at 37 °C for 48 h under 5% CO2. After incubation, the cells were treated with different concentrations of the test compounds and incubated for 24 h. After 24 h of drug treatment, 20 μL of MTT solution at 5 mg/mL was applied and incubated for 4 h at 37 °C. Dimethyl sulphoxide (DMSO) in volume of 100 µL was added to each well to dissolve the purple formazan that had formed. The color intensity of the formazan product, which represents the growth condition of the cells, is quantified by using an ELISA plate reader (EXL 800, USA) at 570 nm absorbance. The experimental conditions were carried out with at least three replicates, and the experiments were repeated at least three times.
(In general: Tetrazolium dyes change colour on reduction, which living cells bring about.)

The subject of another data set is tubulin assembly. More on the design: method as in PMID 25721862. To be noted: cited from earlier work.
The next data set has as its system MCF-7 cells. Put plainly: Cell cycle analysis by DNA flow cytometry. To be noted: MCF-7, 48 h, 4e at IC50 (2.11 μM), PTX 0.1 μM. It is filed as cell-based. As for the experimental part:
In order to study the mechanism of the cytotoxic activity of compound 4e, cell cycle analysis was investigated in breast cancer MCF-7 cells by DNA flow cytometry analysis at IC50 dose values of compound 4e for 48 h. Paclitaxel (PTX, 0.1 μM) was used as the reference drug in this study.
MCF-7 cells (2 × 10^5/well) were harvested and washed twice in PBS. After that, the cells were incubated at 37 °C and 5% CO2. The medium was replaced with DMSO 1% v/v containing the tested compound 4e (2.11 μM) and PTX (0.1 μM), then incubated for 48 h, washed twice in PBS, fixed with 70% ethanol, rinsed again with PBS and then stained with DNA fluorochrome PI for 15 min at 37 °C. The samples were analyzed by flow cytometry on a FACS Calibur flow cytometer (Becton and Dickinson, Heidelberg, Germany).
(Flow cytometry measures light scatter and fluorescence of single cells or particles in a stream.)

Data set [2] deals with normal breast cell line (MCF-10A). Nature of the data set: MTT cytotoxicity against normal breast cell line MCF-10A. It is filed as cell-based. Conditions: MTT assay. As for the experimental part: Compounds 2–5d were evaluated for their cytotoxic activities against breast cancer MCF-7 cell line by using an MTT colorimetric assay. Cisplatin was used as reference drug in this study. […] Additionally, the therapeutic safety of N-(3-hydroxy-4-methoxy) aryl amide derivative 4e was determined by screening its cytotoxic activity against normal breast cell line (MCF-10A) using an MTT colorimetric assay.
as §1

The subject of another data set is β-tubulin. Nature of the data set: β-tubulin inhibition percentage by ELISA (tubulin polymerization inhibition). It is filed as biochemical. Conditions: 5 μM concentration. (An ELISA detects its analyte on a solid surface through an enzyme-linked reagent.)

Structures are written as SMILES.

`CCOC(=O)C(=Cc1ccco1)NC(=O)c1cc(OC)c(OC)c(OC)c1` [Compound 2, Ethyl 3-(Furan-2-yl)-2-(3,4,5-trimethoxybenzamido)acrylate] returned a melting point of 126 to 128 °C. For the same molecule, the IC50 in data set [1] (Homo sapiens, MCF7, 24 h) was above 50 µM.

As for `COc1ccccc1CNC(=O)C(=Cc1ccco1)NC(=O)c1cc(OC)c(OC)c(OC)c1` [Compound 5b, N-[1-(Furan-2-yl)-3-((2-methoxybenzyl)amino)-3-oxoprop-1-en-2-yl]-3,4,5-trimethoxybenzamide], the melting point fell in the range of 166 to 168 °C. The same molecule registered an IC50 in data set [1] (Homo sapiens, MCF7, 24 h) of 5.03 ± 1.01 µM.

Regarding `COc1ccc(CNC(=O)C(=Cc2ccco2)NC(=O)c2cc(OC)c(OC)c(OC)c2)cc1OC` [Compound 5d, N-[3-((3,4-Dimethoxybenzyl)amino)-1-(furan-2-yl)-3-oxoprop-1-en-2-yl]-3,4,5-trimethoxybenzamide], the melting point fell in the range of 124 to 126 °C. Besides, in data set [1] (Homo sapiens, MCF7, 24 h), the half-inhibitory concentration (IC50) was 2.61 ± 0.32 µM.

Regarding `COc1ccc(C(=O)/C=C/c2cc(C(=O)c3cc(OC)c(OC)c(OC)c3)ccc2OC)cc1N` [Compound IV], the 50% inhibitory concentration (IC50) in the data set on tubulin assembly was 0.6 µM.

Regarding `COc1ccc(NC(=O)C(=Cc2ccco2)NC(=O)c2cc(OC)c(OC)c(OC)c2)cc1O` [Compound 4e, N-[1-(Furan-2-yl)-3-(3-hydroxy-4-methoxyphenylamino)-3-oxoprop-1-en-2-yl]-3,4,5-trimethoxybenzamide], the “percentage of cells in pre-G1 phase” value in the data set on MCF-7 cells (untreated control 1.73%) worked out at 24.62%. Moreover, in the data set on MCF-7 cells (untreated control 8.39%), the “percentage of cells in G2/M phase” value was 42.50%. For the same molecule, the IC50 was found to be 29.3 ± 1.21 µM in data set [2] (Homo sapiens) and 2.11 ± 0.19 µM in data set [1] (Homo sapiens, MCF7, 24 h). Moreover, the β-tubulin inhibition percentage in the data set on β-tubulin is listed as 89%.

Turning to `COc1cc(C(=O)NC(=Cc2ccco2)C(=O)Nc2cccc(C)c2)cc(OC)c1OC` [Compound 4b, N-[1-(Furan-2-yl)-3-oxo-3-(m-tolylamino)prop-1-en-2-yl]-3,4,5-trimethoxybenzamide], the melting point fell in the range of 217 to 219 °C. In addition, inhibition in data set [1] (Homo sapiens, MCF7, 24 h) was half-maximal at 10.4 ± 1.09 µM (IC50).

The molecule `COc1cc(C(=O)NC(=Cc2ccco2)C(=O)Nc2ccccc2C)cc(OC)c1OC` [Compound 4a, N-[1-(Furan-2-yl)-3-oxo-3-(o-tolylamino)prop-1-en-2-yl]-3,4,5-trimethoxybenzamide] returned a melting point of 222 to 224 °C. In data set [1] (Homo sapiens, MCF7, 24 h), this molecule displayed an IC50 of 27.3 ± 1.21 µM.

`COc1ccc(NC(=O)C(=Cc2ccco2)NC(=O)c2cc(OC)c(OC)c(OC)c2)cc1` [Compound 4c, N-[1-(Furan-2-yl)-3-(4-methoxyphenylamino)-3-oxoprop-1-en-2-yl]-3,4,5-trimethoxybenzamide] had a melting point of 249 to 251 °C. Half-maximal inhibition in data set [1] (Homo sapiens, MCF7, 24 h) (IC50) required 26.2 ± 1.21 µM.

`COc1cccc(CNC(=O)C(=Cc2ccco2)NC(=O)c2cc(OC)c(OC)c(OC)c2)c1` [Compound 5c, N-[1-(Furan-2-yl)-3-(3-methoxybenzylamino)-3-oxoprop-1-en-2-yl]-3,4,5-trimethoxybenzamide]: the melting point lay in the range of 164 to 166 °C. Also, the IC50 in data set [1] (Homo sapiens, MCF7, 24 h) was 2.61 µM. In addition, the IC50 in data set [1] was 3.03 ± 0.39 µM.

The molecule `COc1cc(C(=O)NC(=Cc2ccco2)C(=O)NCc2cccc(C)c2)cc(OC)c1OC` [Compound 5a, N-[1-(Furan-2-yl)-3-((3-methylbenzyl)amino)-3-oxoprop-1-en-2-yl]-3,4,5-trimethoxybenzamide] came in with a melting point of 175 to 177 °C. The same molecule displayed an IC50 in data set [1] (Homo sapiens, MCF7, 24 h) of 3.92 ± 0.21 µM.

Molecule `COc1cc(C(=O)NC(=Cc2ccco2)C(=O)Nc2ccc(O)cc2)cc(OC)c1OC` [Compound 4d, N-[1-(Furan-2-yl)-3-(4-hydroxyphenylamino)-3-oxoprop-1-en-2-yl]-3,4,5-trimethoxybenzamide] displayed a melting point of 214 to 216 °C. This molecule also yielded an IC50 in data set [1] (Homo sapiens, MCF7, 24 h) of 18.4 ± 1.14 µM.

`COc1cc(C(=O)NC(=Cc2ccco2)C(=O)NC(C)C)cc(OC)c1OC` [Compound 3, N-[1-(Furan-2-yl)-3-(isopropylamino)-3-oxoprop-1-en-2-yl]-3,4,5-trimethoxybenzamide]: the melting point was 168 to 170 °C. The molecule further gave a concentration for half-maximal inhibition (IC50) in data set [1] (Homo sapiens, MCF7, 24 h) of 4.73 ± 0.27 µM.

On to `N.N.[Cl][Pt][Cl]` [Cisplatin, reference compound], for which the IC50 in data set [2] amounted to 22.62 ± 0.19 µM; in data set [1], 1.02 ± 0.12 µM.

Usually IC50 stands for the midpoint of a concentration-inhibition curve. As a reminder, the melting point is the temperature, or range, at which the solid turns liquid.
